Results taken from patent US11857565B2, “Hydrophobic Auristatin F compounds and conjugates thereof” (priority 2018, dated 2024).
pIC50: −log10 of the molar value. Starred links: 1 amine or outer side, 2 acyl side, 3 side chain; linkers in the order of their positions; H or OH if unused. Non-standard residues stand in square brackets, D forms with d. Residues, ends and D or L forms follow the SMILES beside them. *: point of attachment. Dolaproine = CO[C@@H]([C@@H]1CCCN1)[C@@H](C)C(=O)O; X2 = CC(C)[C@@H](C(=O)[*:2])N(C)CCCCCN(C)[*:1]; X16 = CC(CCN(C)[C@H](C(=O)*)C(C)C)CC(C)(C)C; X18 = CCCCCCCCCCCCCCCN(C)[C@H](C(=O)*)C(C)C; X7 = CC(C)[C@@H](C(=O)[*:2])N(C)CCN(C)[*:1]; Dil = CC[C@H](C)[C@H](NC)[C@@H](CC(=O)O)OC; X21 = CCCCCCCCCCCN(C)[C@H](C(=O)*)C(C)C; X8 = CCCCCCCCCCCCN(C)[C@H](C(=O)*)C(C)C; X24 = CC(C)CCCN(C)[C@H](C(=O)*)C(C)C; X22 = CC(C)CCN(C)[C@H](C(=O)*)C(C)C; X13 = CCCCCN(C)[C@H](C(=O)*)C(C)C; X23 = CCCN(CCC)[C@H](C(=O)*)C(C)C; X15 = CCCN(C)[C@H](C(=O)*)C(C)C; X17 = CCN(CC)[C@H](C(=O)*)C(C)C; Boc = CC(C)(C)OC(=O)*

How the values were obtained:
Type in all cases: cell-based
[1] = tested on: MDR− HL60 acute myeloid leukemia cell line; experiment: In vitro cytotoxicity (CellTiter-Glo cell proliferation assay), free drugs on HL60; details: Homo sapiens, HL-60, 96 h, read-out: In vitro IC50 HL60 (MDR−)
Procedure: (§1) The cytotoxicity of an auristatin Ligand Drug Conjugate or free auristatin drug was measured by a cell proliferation assay employing the protocol described in Promega Corp. Technical Bulletin TB288; Mendoza et al., 2002, Cancer Res. 62:5485-5488), the methods of which is specifically incorporated by reference herein. Briefly, an aliquot of 100 μl of cell culture containing about […] (e.g., HL-60, SK-MEL-5, etc.) in medium is deposited in each well of a 96-well, opaque-walled plate. Control wells were prepared containing medium and without cells. Free Drug or conjugate is added to the experimental wells and incubated for 96 h and are then equilibrated to room temperature for approximately 30 minutes whereupon a volume of CellTiter-Glo™ reagent equal to the volume of cell culture medium present in each well is added. The contents are mixed for 2 minutes on an orbital shaker to induce cell lysis and the plate is incubated at room temperature for 10 minutes to stabilize the luminescence signal for recordation.

[2] = tested on: MDR+ HL60/RV acute myeloid leukemia cell line; experiment: In vitro cytotoxicity (CellTiter-Glo cell proliferation assay), free drugs on HL60/RV; details: Homo sapiens, HL-60, 96 h, read-out: In vitro IC50 HL60/RV (MDR+)
Procedure: as §1

[3] = tested on: SK-MEL-28 Melanoma; experiment: In vitro cytotoxicity, free drugs on SK-MEL-28; details: Homo sapiens, SK-MEL-28; free drug
Procedure: as §1

[4] = tested on: SK-MEL-5 Melanoma; experiment: In vitro cytotoxicity, free drugs on SK-MEL-5; details: Homo sapiens, SK-MEL-5; free drug
Procedure: as §1

[5] = tested on: A2058 Melanoma; experiment: In vitro cytotoxicity, free drugs on A2058; details: Homo sapiens, A2058; free drug
Procedure: as §1

[6] = tested on: A375 Melanoma; experiment: In vitro cytotoxicity, free drugs on A375; details: Homo sapiens, A-375; free drug
Procedure: as §1

[7] = tested on: IGR-37 Melanoma; experiment: In vitro cytotoxicity, free drugs on IGR-37; details: Homo sapiens, IGR-37; free drug
Procedure: as §1

[8] = In vitro cytotoxicity, free drugs on Colo-853; details: free drug; read-out: In vitro IC50 Colo-853 Colon Cancer
Procedure: as §1

Row | Compound | pIC50 [1] | pIC50 [2] | also measured
1 | CCCCCCCCCCCCN(C)[C@H](C(=O)N[C@H](C(=O)N(C)[C@@H]([C@@H](C)CC)[C@@H](CC(=O)N1CCC[C@H]1[C@H](OC)[C@@H](C)C(=O)N[C@@H](Cc1ccccc1)C(=O)O)OC)C(C)C)C(C)C [Compound 14, Dodecyl-AF] (X8-V[Dil][Dolaproine]F-OH) | 8.85 | 6.86 | –
2 | CC[C@H](C)[C@@H]([C@@H](CC(=O)N1CCC[C@H]1[C@H](OC)[C@@H](C)C(=O)N[C@@H](Cc1ccccc1)C(=O)O)OC)N(C)C(=O)[C@@H](NC(=O)[C@H](C(C)C)N(C)CCN(C)C(=O)OC(C)(C)C)C(C)C [Compound 24, Boc-(N-methyl-ethyl)-AF] (Boc-[X7]V[Dil][Dolaproine]F-OH) | – | – | pIC50 [3]: 7.86; pIC50 [4]: 8.24; pIC50 [5]: 8.28; pIC50 [6]: 8.31; pIC50 [7]: 7.64; pIC50 [8]: 7.71
3 | CCCCCCCCCCCCCCCN(C)[C@H](C(=O)N[C@H](C(=O)N(C)[C@@H]([C@@H](C)CC)[C@@H](CC(=O)N1CCC[C@H]1[C@H](OC)[C@@H](C)C(=O)N[C@@H](Cc1ccccc1)C(=O)O)OC)C(C)C)C(C)C [Compound 15, Pentadecyl-AF] (X18-V[Dil][Dolaproine]F-OH) | 8.33 | 6.53 | –
4 | CCCCCN(C)[C@H](C(=O)N[C@H](C(=O)N(C)[C@@H]([C@@H](C)CC)[C@@H](CC(=O)N1CCC[C@H]1[C@H](OC)[C@@H](C)C(=O)N[C@@H](Cc1ccccc1)C(=O)O)OC)C(C)C)C(C)C [Compound 7, Pentyl-AF] (X13-V[Dil][Dolaproine]F-OH) | 8.18 | 7.45 | –
5 | CCCCCCCCCCCN(C)[C@H](C(=O)N[C@H](C(=O)N(C)[C@@H]([C@@H](C)CC)[C@@H](CC(=O)N1CCC[C@H]1[C@H](OC)[C@@H](C)C(=O)N[C@@H](Cc1ccccc1)C(=O)O)OC)C(C)C)C(C)C [Compound 13, Undecyl-AF] (X21-V[Dil][Dolaproine]F-OH) | 9.00 | 7.22 | –
6 | CCCN(CCC)[C@H](C(=O)N[C@H](C(=O)N(C)[C@@H]([C@@H](C)CC)[C@@H](CC(=O)N1CCC[C@H]1[C@H](OC)[C@@H](C)C(=O)N[C@@H](Cc1ccccc1)C(=O)O)OC)C(C)C)C(C)C [Compound 23, Bis(propyl)-AF] (X23-V[Dil][Dolaproine]F-OH) | 8.21 | 6.36 | –
7 | CC[C@H](C)[C@@H]([C@@H](CC(=O)N1CCC[C@H]1[C@H](OC)[C@@H](C)C(=O)N[C@@H](Cc1ccccc1)C(=O)O)OC)N(C)C(=O)[C@@H](NC(=O)[C@H](C(C)C)N(C)CCC(C)CC(C)(C)C)C(C)C (some centres unmarked) [Compound 20, 3,5,5-Trimethylhexyl-AF] (X16-V[Dil][Dolaproine]F-OH) | 9.00 | 7.77 | –
8 | CCCN(C)[C@H](C(=O)N[C@H](C(=O)N(C)[C@@H]([C@@H](C)CC)[C@@H](CC(=O)N1CCC[C@H]1[C@H](OC)[C@@H](C)C(=O)N[C@@H](Cc1ccccc1)C(=O)O)OC)C(C)C)C(C)C [Compound 5, Propyl-AF] (X15-V[Dil][Dolaproine]F-OH) | 7.61 | 7.09 | –
9 | CC[C@H](C)[C@@H]([C@@H](CC(=O)N1CCC[C@H]1[C@H](OC)[C@@H](C)C(=O)N[C@@H](Cc1ccccc1)C(=O)O)OC)N(C)C(=O)[C@@H](NC(=O)[C@H](C(C)C)N(C)CCCCCN(C)C(=O)OC(C)(C)C)C(C)C [Compound 26, (Boc-N-methyl)-pentyl-AF] (Boc-[X2]V[Dil][Dolaproine]F-OH) | – | – | pIC50 [3]: 8.02; pIC50 [4]: 9.05; pIC50 [5]: 9.05; pIC50 [6]: 8.68; pIC50 [7]: 8.19; pIC50 [8]: 7.90
10 | CC[C@H](C)[C@@H]([C@@H](CC(=O)N1CCC[C@H]1[C@H](OC)[C@@H](C)C(=O)N[C@@H](Cc1ccccc1)C(=O)O)OC)N(C)C(=O)[C@@H](NC(=O)[C@H](C(C)C)N(C)CCCC(C)C)C(C)C [Compound 19, 4-Methylpentyl-AF] (X24-V[Dil][Dolaproine]F-OH) | 8.31 | 7.69 | –
11 | CC[C@H](C)[C@@H]([C@@H](CC(=O)N1CCC[C@H]1[C@H](OC)[C@@H](C)C(=O)N[C@@H](Cc1ccccc1)C(=O)O)OC)N(C)C(=O)[C@@H](NC(=O)[C@H](C(C)C)N(C)CCC(C)C)C(C)C [Compound 21, 3-Methylbutyl-AF] (X22-V[Dil][Dolaproine]F-OH) | 8.05 | 7.33 | –
12 | CC[C@H](C)[C@@H]([C@@H](CC(=O)N1CCC[C@H]1[C@H](OC)[C@@H](C)C(=O)N[C@@H](Cc1ccccc1)C(=O)O)OC)N(C)C(=O)[C@@H](NC(=O)[C@H](C(C)C)N(CC)CC)C(C)C [Compound 22, Bis(ethyl)-AF] (X17-V[Dil][Dolaproine]F-OH) | 7.87 | 6.69 | –
